Laboratory results taken from patent US10807992B2, “Single enantiomer antiparasitic compounds” (priority 2017, dated 2020).
Where two headings read alike, the source gives them in different places.

Assays:
[1] = tested on: Aedes aegypti; assay: In vitro contact activity against adult mosquitoes (coated vial)
Protocol: (§1) Aedes aegypti (Louisiana Biologicals Inc., New Orleans, La.) eggs were allowed to hatch, close, and age between 3-5 days in an environmental chamber at 26° C., 80% humidity with light/dark cycles.
For mosquito assays, an aliquot from each compound stock was added to an acetone/triton solution to achieve the desired top doses for the study. Serial dilutions were conducted from the top dose (i.e. 50 ppm) to achieve the desired titration range for EC50 and EC90 determination. The final DMSO concentration in each test vial was 0.5%. A 459 μL aliquot of each compound formulation was transferred to a vial and vials were immediately placed on an unheated roller unit to allow for an even coating of the vial walls. The vials were loosely capped and allowed to dry for a minimum of four hours in a chemical fume hood.
(§2) For both contact and ingestion assays, five female Aedes aegypti adults were added to each vial or cage. The test vials for contact assays were held in an environmental chamber at 24° C., 80% humidity with light/dark cycles (12 hours each). The cages for mosquito ingestion assays were held in a temperature-controlled artificial feeding apparatus to allow continual access to organic bovine blood containing the desired concentration of compound. Fresh aliquots of compound-spiked bovine blood were provided daily for the duration of the study.
(§3) Mosquitoes showing no movement or mosquitoes that were knocked down were noted as dead. Results from trial 1 and trial 2 contact assays are shown in Tables 12 and 13, respectively and the results from trial 3 mosquito ingestion assay is shown in table 14.
(§4) For the mosquito contact and ingestion assays, each replicate contained 5 mosquitoes. For ease of calculation, the two replicates were added to equal a total of 10 mosquitoes.

[2] = tested on: Aedes aegypti; assay: In vitro ingestion activity against adult mosquitoes (artificial feeding, bovine blood); conditions: read-out: Mortality % R1 + R2
Protocol: as §1
For mosquito ingestion tests, serial dilutions of the compound stock were performed using DMSO to achieve the desired range for EC50 and EC90 determination. An aliquot of each compound dilution was added to organic bovine blood with a final DMSO concentration of 0.5% and placed in a temperature-controlled artificial feeding container.
Compounds tested were: the C1 racemate, C1 (R) enantiomer, and the C1 (S) enantiomer. For Trial 3, the C1 (R) enantiomer and the C1 (S) enantiomer were further chiral purified to achieve >99% purity.
as §2
as §3, with “Assessment of mortality/knockdown was performed at various time points between 30 minutes and 24 hours post infestation. Mosquitoes” for “Mosquitoes”
as §4

## O=C(CC(F)(F)F)N1CC2(C1)OCc1cc(C3=NS[C@](c4cc(Cl)c(F)c(Cl)c4)(C(F)(F)F)C3)ccc12 [C1 (R) enantiomer, (R)-1-[6-[5-(3,5-dichloro-4-fluoro-phenyl)-5-(trifluoromethyl)-4H-isothiazol-3-yl]spiro[1H-isobenzofuran-3,3′-azetidine]-1′-yl]-3,3,3-trifluoro-propan-1-one]
[1]; 0.5 h, read-out: % Mortality R1 + R2, Trial 1, contact assay, dose 0.049 μM, 0.5 Hr
  mortality at 0.049 µM: 0%
[1]; 0.5 h, read-out: % Mortality R1 + R2, Trial 1, contact assay, dose 0.20 μM, 0.5 Hr
  mortality at 0.2 µM: 0%
[1]; 0.5 h, read-out: % Mortality R1 + R2, Trial 1, contact assay, dose 0.78 μM, 0.5 Hr
  mortality at 0.78 µM: 0%
[1]; 0.5 h, read-out: % Mortality R1 + R2, Trial 1, contact assay, dose 3.125 μM, 0.5 Hr
  mortality at 3.125 µM: 0%
[1]; 0.5 h, read-out: % Mortality R1 + R2, Trial 1, contact assay, dose 12.5 μM, 0.5 Hr
  mortality at 12.5 µM: 0%
[1]; 0.5 h, read-out: % Mortality R1 + R2, Trial 1, contact assay, dose 50 μM, 0.5 Hr
  mortality at 50 µM: 0%
[1]; 0.5 h, read-out: % Mortality R1 + R2, Trial 2, contact assay, dose 0.049 μM, 0.5 Hr
  mortality at 0.049 µM: 0%
[1]; 0.5 h, read-out: % Mortality R1 + R2, Trial 2, contact assay, dose 0.20 μM, 0.5 Hr
  mortality at 0.2 µM: 0%
[1]; 0.5 h, read-out: % Mortality R1 + R2, Trial 2, contact assay, dose 0.78 μM, 0.5 Hr
  mortality at 0.78 µM: 0%
[1]; 0.5 h, read-out: % Mortality R1 + R2, Trial 2, contact assay, dose 3.125 μM, 0.5 Hr
  mortality at 3.125 µM: 0%
[1]; 0.5 h, read-out: % Mortality R1 + R2, Trial 2, contact assay, dose 12.5 μM, 0.5 Hr
  mortality at 12.5 µM: 0%
[1]; 0.5 h, read-out: % Mortality R1 + R2, Trial 2, contact assay, dose 50 μM, 0.5 Hr
  mortality at 50 µM: 0%
[1]; 1 h, read-out: % Mortality R1 + R2, Trial 1, contact assay, dose 0.049 μM, 1 hr
  mortality at 0.049 µM: 0%
[1]; 1 h, read-out: % Mortality R1 + R2, Trial 1, contact assay, dose 0.20 μM, 1 hr
  mortality at 0.2 µM: 0%
[1]; 1 h, read-out: % Mortality R1 + R2, Trial 1, contact assay, dose 0.78 μM, 1 hr
  mortality at 0.78 µM: 0%
[1]; 1 h, read-out: % Mortality R1 + R2, Trial 1, contact assay, dose 3.125 μM, 1 hr
  mortality at 3.125 µM: 0%
[1]; 1 h, read-out: % Mortality R1 + R2, Trial 1, contact assay, dose 12.5 μM, 1 hr
  mortality at 12.5 µM: 0%
[1]; 1 h, read-out: % Mortality R1 + R2, Trial 1, contact assay, dose 50 μM, 1 hr
  mortality at 50 µM: 0%
[1]; 1 h, read-out: % Mortality R1 + R2, Trial 2, contact assay, dose 0.049 μM, 1 hr
  mortality at 0.049 µM: 0%
[1]; 1 h, read-out: % Mortality R1 + R2, Trial 2, contact assay, dose 0.20 μM, 1 hr
  mortality at 0.2 µM: 0%
[1]; 1 h, read-out: % Mortality R1 + R2, Trial 2, contact assay, dose 0.78 μM, 1 hr
  mortality at 0.78 µM: 0%
[1]; 1 h, read-out: % Mortality R1 + R2, Trial 2, contact assay, dose 3.125 μM, 1 hr
  mortality at 3.125 µM: 0%
[1]; 1 h, read-out: % Mortality R1 + R2, Trial 2, contact assay, dose 12.5 μM, 1 hr
  mortality at 12.5 µM: 0%
[1]; 1 h, read-out: % Mortality R1 + R2, Trial 2, contact assay, dose 50 μM, 1 hr
  mortality at 50 µM: 0%
[1]; 6 h, read-out: % Mortality R1 + R2, Trial 1, contact assay, dose 0.049 μM, 6 hr
  mortality at 0.049 µM: 0%
[1]; 6 h, read-out: % Mortality R1 + R2, Trial 1, contact assay, dose 0.20 μM, 6 hr
  mortality at 0.2 µM: 0%
[1]; 6 h, read-out: % Mortality R1 + R2, Trial 1, contact assay, dose 0.78 μM, 6 hr
  mortality at 0.78 µM: 0%
[1]; 6 h, read-out: % Mortality R1 + R2, Trial 1, contact assay, dose 3.125 μM, 6 hr
  mortality at 3.125 µM: 0%
[1]; 6 h, read-out: % Mortality R1 + R2, Trial 1, contact assay, dose 12.5 μM, 6 hr
  mortality at 12.5 µM: 0%
[1]; 6 h, read-out: % Mortality R1 + R2, Trial 1, contact assay, dose 50 μM, 6 hr
  mortality at 50 µM: 0%
[1]; 6 h, read-out: % Mortality R1 + R2, Trial 2, contact assay, dose 0.049 μM, 6 hr
  mortality at 0.049 µM: 0%
[1]; 6 h, read-out: % Mortality R1 + R2, Trial 2, contact assay, dose 0.20 μM, 6 hr
  mortality at 0.2 µM: 0%
[1]; 6 h, read-out: % Mortality R1 + R2, Trial 2, contact assay, dose 0.78 μM, 6 hr
  mortality at 0.78 µM: 0%
[1]; 6 h, read-out: % Mortality R1 + R2, Trial 2, contact assay, dose 3.125 μM, 6 hr
  mortality at 3.125 µM: 0%
[1]; 6 h, read-out: % Mortality R1 + R2, Trial 2, contact assay, dose 12.5 μM, 6 hr
  mortality at 12.5 µM: 0%
[1]; 6 h, read-out: % Mortality R1 + R2, Trial 2, contact assay, dose 50 μM, 6 hr
  mortality at 50 µM: 0%
[1]; 12 h, read-out: % Mortality R1 + R2, Trial 1, contact assay, dose 0.049 μM, 12 hr
  mortality at 0.049 µM: 0%
[1]; 12 h, read-out: % Mortality R1 + R2, Trial 1, contact assay, dose 0.20 μM, 12 hr
  mortality at 0.2 µM: 0%
[1]; 12 h, read-out: % Mortality R1 + R2, Trial 1, contact assay, dose 0.78 μM, 12 hr
  mortality at 0.78 µM: 0%
[1]; 12 h, read-out: % Mortality R1 + R2, Trial 1, contact assay, dose 3.125 μM, 12 hr
  mortality at 3.125 µM: 0%
[1]; 12 h, read-out: % Mortality R1 + R2, Trial 1, contact assay, dose 12.5 μM, 12 hr
  mortality at 12.5 µM: 0%
[1]; 12 h, read-out: % Mortality R1 + R2, Trial 1, contact assay, dose 50 μM, 12 hr
  mortality at 50 µM: 30%
[1]; 12 h, read-out: % Mortality R1 + R2, Trial 2, contact assay, dose 0.049 μM, 12 hr
  mortality at 0.049 µM: 0%
[1]; 12 h, read-out: % Mortality R1 + R2, Trial 2, contact assay, dose 0.20 μM, 12 hr
  mortality at 0.2 µM: 10%
[1]; 12 h, read-out: % Mortality R1 + R2, Trial 2, contact assay, dose 0.78 μM, 12 hr
  mortality at 0.78 µM: 10%
[1]; 12 h, read-out: % Mortality R1 + R2, Trial 2, contact assay, dose 3.125 μM, 12 hr
  mortality at 3.125 µM: 0%
[1]; 12 h, read-out: % Mortality R1 + R2, Trial 2, contact assay, dose 12.5 μM, 12 hr
  mortality at 12.5 µM: 0%
[1]; 12 h, read-out: % Mortality R1 + R2, Trial 2, contact assay, dose 50 μM, 12 hr
  mortality at 50 µM: 20%
[1]; 24 h, read-out: % Mortality R1 + R2, Trial 1, contact assay, dose 0.049 μM, 24 hr
  mortality at 0.049 µM: 0%
[1]; 24 h, read-out: % Mortality R1 + R2, Trial 1, contact assay, dose 0.20 μM, 24 hr
  mortality at 0.2 µM: 0%
[1]; 24 h, read-out: % Mortality R1 + R2, Trial 1, contact assay, dose 0.78 μM, 24 hr
  mortality at 0.78 µM: 0%
[1]; 24 h, read-out: % Mortality R1 + R2, Trial 1, contact assay, dose 3.125 μM, 24 hr
  mortality at 3.125 µM: 0%
[1]; 24 h, read-out: % Mortality R1 + R2, Trial 1, contact assay, dose 12.5 μM, 24 hr
  mortality at 12.5 µM: 0%
[1]; 24 h, read-out: % Mortality R1 + R2, Trial 1, contact assay, dose 50 μM, 24 hr
  mortality at 50 µM: 100%
[1]; 24 h, read-out: % Mortality R1 + R2, Trial 2, contact assay, dose 0.049 μM, 24 hr
  mortality at 0.049 µM: 0%
[1]; 24 h, read-out: % Mortality R1 + R2, Trial 2, contact assay, dose 0.20 μM, 24 hr
  mortality at 0.2 µM: 0%
[1]; 24 h, read-out: % Mortality R1 + R2, Trial 2, contact assay, dose 0.78 μM, 24 hr
  mortality at 0.78 µM: 10%
[1]; 24 h, read-out: % Mortality R1 + R2, Trial 2, contact assay, dose 3.125 μM, 24 hr
  mortality at 3.125 µM: 10%
[1]; 24 h, read-out: % Mortality R1 + R2, Trial 2, contact assay, dose 12.5 μM, 24 hr
  mortality at 12.5 µM: 60%
[1]; 24 h, read-out: % Mortality R1 + R2, Trial 2, contact assay, dose 50 μM, 24 hr
  mortality at 50 µM: 100%
[1]; 48 h, read-out: % Mortality R1 + R2, Trial 1, contact assay, dose 0.049 μM, 48 hr
  mortality at 0.049 µM: 10%
[1]; 48 h, read-out: % Mortality R1 + R2, Trial 1, contact assay, dose 0.20 μM, 48 hr
  mortality at 0.2 µM: 40%
[1]; 48 h, read-out: % Mortality R1 + R2, Trial 1, contact assay, dose 0.78 μM, 48 hr
  mortality at 0.78 µM: 20%
[1]; 48 h, read-out: % Mortality R1 + R2, Trial 1, contact assay, dose 3.125 μM, 48 hr
  mortality at 3.125 µM: 30%
[1]; 48 h, read-out: % Mortality R1 + R2, Trial 1, contact assay, dose 12.5 μM, 48 hr
  mortality at 12.5 µM: 50%
[1]; 48 h, read-out: % Mortality R1 + R2, Trial 1, contact assay, dose 50 μM, 48 hr
  mortality at 50 µM: 100%
[1]; 48 h, read-out: % Mortality R1 + R2, Trial 2, contact assay, dose 0.049 μM, 48 hr
  mortality at 0.049 µM: 20%
[1]; 48 h, read-out: % Mortality R1 + R2, Trial 2, contact assay, dose 0.20 μM, 48 hr
  mortality at 0.2 µM: 60%
[1]; 48 h, read-out: % Mortality R1 + R2, Trial 2, contact assay, dose 0.78 μM, 48 hr
  mortality at 0.78 µM: 10%
[1]; 48 h, read-out: % Mortality R1 + R2, Trial 2, contact assay, dose 3.125 μM, 48 hr
  mortality at 3.125 µM: 20%
[1]; 48 h, read-out: % Mortality R1 + R2, Trial 2, contact assay, dose 12.5 μM, 48 hr
  mortality at 12.5 µM: 100%
[1]; 48 h, read-out: % Mortality R1 + R2, Trial 2, contact assay, dose 50 μM, 48 hr
  mortality at 50 µM: 100%
[2]; 24 h
  mortality at 0.049 ppm: 40%
  mortality at 0.2 ppm: 30%
  mortality at 0.78 ppm: 75%
  mortality at 3.125 ppm: 100%
  mortality at 12.5 ppm: 100%
  mortality at 50 ppm: 100%
[2]
  mortality at 0.049 ppm: 10%
  mortality at 0.2 ppm: 10%
  mortality at 0.78 ppm: 0%
  mortality at 3.125 ppm: 11.1%
  mortality at 12.5 ppm: 100%
  mortality at 50 ppm: 88.9%
